From patent US12122802B2, “D-allose crystal and production method thereof” (MATSUTANI CHEMICAL INDUSTRY CO., LTD., priority 2019, dated 2024)
One block for each compound: values may come before it.

What was measured:
[1] = repose angle measured by powder tester PT-E (fluidity of anhydrous D-allose crystals); assay type: physicochemical; details: for Degree of fluidity: drying tests of Table 6, evaluated from repose angle according to Table 4
Method: The fluidity of the anhydrous D-allose crystals obtained by drying the hydrous crystals obtained in each of Tests Nos. 1 to 12 with an evaporator (30° C., 20 hPa (abs), about 2 hours) as described above was evaluated by the repose angle measured by a powder tester PT-E (manufactured by Hosokawa Micron Corporation). Specifically, a sample was dropped and deposited on a disk, and the inclination angle was measured from three directions to obtain an average value. From the average value, the degree of fluidity was evaluated according to Table 1 in the Japanese Pharmacopoeia, 17th edition, Reference Information G2 physical property-related “Powder Fluidity” (same as the so-called Carr's fluidity index table, shown as Table 4).
(§1) In order to measure the water content in the crystals obtained by each of the drying methods, drying under reduced pressure under conditions at 70° C. for 18 hours was performed to calculate the water content in the crystals from the weight loss through the drying under reduced pressure. The repose angle was measured by the method described above to determine the degree of fluidity. The yield rate was calculated by the following expression. Yield rate (%)=(D/C)×100 [Expression 4]

[2] = water content in crystals from weight loss on drying under reduced pressure at 70° C. for 18 hours; assay type: physicochemical; details: hydrous D-allose crystals (purity 99.9%, water content 17.7%) dried under the named drying conditions
Method: as §1

[3] = system: active oxygen in cells; details: cited from earlier work
[4] = in vivo; cited from earlier work
[5] = system: cancer cells; details: cited from earlier work
[6] = aspect ratio of crystals from microscopic picture (Digital microscope VHX-5000, 50x); assay type: physicochemical
Description: The “anhydrous D-allose crystals” of the present invention have an extremely large average particle size as described above and are not in a fine needle form, having a characteristic aspect ratio of the crystal. In the present invention, the aspect ratio refers to the ratio of the long diameter to the short diameter of a crystal (short diameter: minimum length of lines passing through the center of gravity of the plane shape of a crystal, long diameter: maximum length of a crystal measured orthogonal to the short diameter). In the present specification, the aspect ratio in a numerical range from A to B (A and B: arbitrary numbers) means that all of the aspect ratios of a specified number (preferably at least 10, for example 10) of crystal particles randomly selected are within the numerical range. Example of random selection of crystal particles includes a method comprising taking a microscopic picture of crystals at 20× to 50× magnification and, from the crystals on the diagonal line drawn from the upper left to the lower right of the microscopic picture taken, selecting 10 crystals with a full body shown in order from the upper left on the diagonal line. Specifically, the aspect ratio is preferably 1.0 to 10.0, more preferably 2.0 to 8.0, still more preferably 2.0 to 7.0. Next, the aspect ratio of the anhydrous D-allose crystals of the present invention was examined. Specifically, a microscopic picture of each of the anhydrous D-allose crystals obtained in the previous Test Nos. 1 to 5, 7 to 10 and 12 were taken using “Digital microscope VHX-5000” manufactured by KEYENCE Corporation (50×magnification). Among the crystals on the diagonal line drawn from the upper left to the lower right of the microscopic picture taken, 10 crystals with a full picture shown were selected in order from the upper left and then the long diameter and the short diameter of each crystal were measured for calculation of the aspect ratio (Long diameter/Short diameter, wherein short diameter refers to minimum length of lines passing through the center of gravity of the plane shape of a crystal, and long diameter refers to maximum length of a crystal measured orthogonal to the short diameter). The minimum value of the aspect ratio was 1.1 and the maximum value was 9.6 (Table 9).

[7] = particle size distribution by laser diffraction (Mastersizer 3000, dry dispersion unit Aero S); assay type: physicochemical; details: average of 5 measurements, dispersion pressure 1.0 bar
Description: The melting point (Tm) in the DSC refers to the melting start temperature of the endothermic peak obtained by DSC measurement (temperature at the extrapolated intersection of the base line and the maximum slope line of the endothermic peak), and the melting enthalpy (ΔH) refers to the area of the endothermic peak (ASTM D3418-15, Standard Test Method for Transition Temperatures and Enthalpies of Fusion and Crystallization of Polymers by Differential Scanning calorimetry). Further, in the present invention, the average particle size refers to the volume-based average particle size d[4,3], which is usually measured with a laser diffraction particle size distribution analyzer.
Next, the particle size distribution of the anhydrous D-allose crystals of the present invention was examined. Specifically, the anhydrous D-allose crystals obtained in the previous Test Nos. 1 to 5, 7 to 10 and 12, were subjected to measurement of particle size distribution under the measurement conditions shown in Table 7 using “Mastersizer 3000” and a “dry dispersion unit Aero S” manufactured by Malvern Instruments. More specifically, the measurement was repeated 5 times, and the average value of the 5 times measurements was used. No great variability was seen among the 5 times measurement values. The particle size distribution was expressed on a volume basis, and the volume-based average particle size d[4,3] and standard deviation σ were recorded. Also, the coefficient of variation CV=σ/d[4,3] was calculated in order to relatively evaluate the variation in the particle size distribution.

[8] = drying tests of Table 6, crystals after the named drying conditions

SMILES: O=C[C@H](O)[C@H](O)[C@H](O)[C@H](O)CO [Conductive heat transfer drying at 50° C.] [D-allose]
- Repose angle (degrees) [1, 8]: 42 degrees
- Degree of fluidity [1]: Passable (41~45)
- Water content (%) after drying [2]: 0.099%

SMILES: O=C[C@H](O)[C@H](O)[C@H](O)[C@H](O)CO [Conductive heat transfer drying at 60° C.] [D-allose]
- Repose angle (degrees) [1, 8]: 41.7 degrees
- Degree of fluidity [1]: Passable (41~45)
- Water content (%) after drying [2]: 0.18%

SMILES: O=C[C@H](O)[C@H](O)[C@H](O)[C@H](O)CO [D-allose]
- effect on generation of active oxygen in cells [3]: effect for suppressing generation of active oxygen in cells
- effect on increase in blood pressure [4]: effect for suppressing an increase in blood pressure
- effect on growth of cancer cells [5]: effect for suppressing growth of cancer cells

SMILES: O=C[C@H](O)[C@H](O)[C@H](O)[C@H](O)CO [Convection heat transfer drying at 40° C., Air supply: 6000 ] [D-allose]
- Repose angle (degrees) [1, 8]: 41.7 degrees
- Degree of fluidity [1]: Passable (41~45)
- Water content (%) after drying [2]: 0.13%

SMILES: O=C[C@H](O)[C@H](O)[C@H](O)[C@H](O)CO [Conductive heat transfer drying at 40° C.] [D-allose]
- Repose angle (degrees) [1, 8]: 41.3 degrees
- Degree of fluidity [1]: Passable (41~45)
- Water content (%) after drying [2]: 0.13%

SMILES: O=C[C@H](O)[C@H](O)[C@H](O)[C@H](O)CO [Test No. 10, D-allose]
- Repose angle (degrees) ([1]; anhydrous crystals of Test Nos. 1 to 12, hydrous crystals dried with evaporator (30° C., 20 hPa (abs), about 2 hours), average of three directions, listed as 10): 41.3 degrees
- Aspect ratio (Long diameter/Short diameter) ([6]; crystal ① of 10 selected, listed as 10): 1.6
- Aspect ratio (Long diameter/Short diameter) ([6]; crystal ② of 10 selected, listed as 10): 3.9
- Aspect ratio (Long diameter/Short diameter) ([6]; crystal ③ of 10 selected, listed as 10): 5.6
- Aspect ratio (Long diameter/Short diameter) ([6]; crystal ④ of 10 selected, listed as 10): 2.1
- Aspect ratio (Long diameter/Short diameter) ([6]; crystal ⑤ of 10 selected, listed as 10): 4.0
- Aspect ratio (Long diameter/Short diameter) ([6]; crystal ⑥ of 10 selected, listed as 10): 9.6
- Aspect ratio (Long diameter/Short diameter) ([6]; crystal ⑦ of 10 selected, listed as 10): 2.3
- Aspect ratio (Long diameter/Short diameter) ([6]; crystal ⑧ of 10 selected, listed as 10): 3.3
- Aspect ratio (Long diameter/Short diameter) ([6]; crystal ⑨ of 10 selected, listed as 10): 4.6
- Aspect ratio (Long diameter/Short diameter) ([6]; crystal ⑩ of 10 selected, listed as 10): 5.4
- d [4, 3] (volume-based average particle size) ([7]; listed as 10): 492 μm

Next, values leading:

- Repose angle (degrees) [1, 8]: 42 degrees
- Degree of fluidity [1]: Passable (41~45)
- Water content (%) after drying [2]: 0.13%
SMILES: O=C[C@H](O)[C@H](O)[C@H](O)[C@H](O)CO [Convection heat transfer drying at 50° C., Air supply: 4700 ] [D-allose]

- Repose angle (degrees) [1, 8]: 45.7 degrees
- Degree of fluidity [1]: Passable (41~45)
- Water content (%) after drying [2]: 0.052%
SMILES: O=C[C@H](O)[C@H](O)[C@H](O)[C@H](O)CO [Ultra-low humidity drying (20 to 24° C.), D-allose]

- Repose angle (degrees) [1, 8]: 41.3 degrees
- Degree of fluidity [1]: Passable (41~45)
- Water content (%) after drying [2]: 0.14%
SMILES: O=C[C@H](O)[C@H](O)[C@H](O)[C@H](O)CO [Convection heat transfer drying at 40° C., Air supply: 3900 ] [D-allose]

- Repose angle (degrees) ([1]; anhydrous crystals of Test Nos. 1 to 12, hydrous crystals dried with evaporator (30° C., 20 hPa (abs), about 2 hours), average of three directions, listed as 4): 42.3 degrees
- Aspect ratio (Long diameter/Short diameter) ([6]; crystal ① of 10 selected, listed as 4): 4.3
- Aspect ratio (Long diameter/Short diameter) ([6]; crystal ② of 10 selected, listed as 4): 4.0
- Aspect ratio (Long diameter/Short diameter) ([6]; crystal ③ of 10 selected, listed as 4): 4.2
- Aspect ratio (Long diameter/Short diameter) ([6]; crystal ④ of 10 selected, listed as 4): 2.0
- Aspect ratio (Long diameter/Short diameter) ([6]; crystal ⑤ of 10 selected, listed as 4): 6.0
- Aspect ratio (Long diameter/Short diameter) ([6]; crystal ⑥ of 10 selected, listed as 4): 1.1
- Aspect ratio (Long diameter/Short diameter) ([6]; crystal ⑦ of 10 selected, listed as 4): 3.9
- Aspect ratio (Long diameter/Short diameter) ([6]; crystal ⑧ of 10 selected, listed as 4): 8.1
- Aspect ratio (Long diameter/Short diameter) ([6]; crystal ⑨ of 10 selected, listed as 4): 3.8
- Aspect ratio (Long diameter/Short diameter) ([6]; crystal ⑩ of 10 selected, listed as 4): 4.1
- d [4, 3] (volume-based average particle size) ([7]; listed as 4): 588 μm
SMILES: O=C[C@H](O)[C@H](O)[C@H](O)[C@H](O)CO [Test No. 4, D-allose]

- Repose angle (degrees) ([1]; anhydrous crystals of Test Nos. 1 to 12, hydrous crystals dried with evaporator (30° C., 20 hPa (abs), about 2 hours), average of three directions, listed as 2): 42.7 degrees
- Aspect ratio (Long diameter/Short diameter) ([6]; crystal ① of 10 selected, listed as 2): 2.9
- Aspect ratio (Long diameter/Short diameter) ([6]; crystal ② of 10 selected, listed as 2): 3.0
- Aspect ratio (Long diameter/Short diameter) ([6]; crystal ③ of 10 selected, listed as 2): 3.5
- Aspect ratio (Long diameter/Short diameter) ([6]; crystal ④ of 10 selected, listed as 2): 3.5
- Aspect ratio (Long diameter/Short diameter) ([6]; crystal ⑤ of 10 selected, listed as 2): 3.0
- Aspect ratio (Long diameter/Short diameter) ([6]; crystal ⑥ of 10 selected, listed as 2): 5.5
- Aspect ratio (Long diameter/Short diameter) ([6]; crystal ⑦ of 10 selected, listed as 2): 2.6
- Aspect ratio (Long diameter/Short diameter) ([6]; crystal ⑧ of 10 selected, listed as 2): 4.9
- Aspect ratio (Long diameter/Short diameter) ([6]; crystal ⑨ of 10 selected, listed as 2): 3.0
- Aspect ratio (Long diameter/Short diameter) ([6]; crystal ⑩ of 10 selected, listed as 2): 4.1
- d [4, 3] (volume-based average particle size) ([7]; listed as 2): 563 μm
SMILES: O=C[C@H](O)[C@H](O)[C@H](O)[C@H](O)CO [Test No. 2, D-allose]

- Repose angle (degrees) [1, 8]: 44 degrees
- Degree of fluidity [1]: Passable (41~45)
- Water content (%) after drying [2]: 0.105%
SMILES: O=C[C@H](O)[C@H](O)[C@H](O)[C@H](O)CO [Conductive heat transfer drying at 70° C.] [D-allose]

- Repose angle (degrees) ([1]; anhydrous crystals of Test Nos. 1 to 12, hydrous crystals dried with evaporator (30° C., 20 hPa (abs), about 2 hours), average of three directions, listed as 3): 42.0 degrees
- Aspect ratio (Long diameter/Short diameter) ([6]; crystal ① of 10 selected, listed as 3): 2.5
- Aspect ratio (Long diameter/Short diameter) ([6]; crystal ② of 10 selected, listed as 3): 5.4
- Aspect ratio (Long diameter/Short diameter) ([6]; crystal ③ of 10 selected, listed as 3): 3.9
- Aspect ratio (Long diameter/Short diameter) ([6]; crystal ④ of 10 selected, listed as 3): 6.2
- Aspect ratio (Long diameter/Short diameter) ([6]; crystal ⑤ of 10 selected, listed as 3): 4.5
- Aspect ratio (Long diameter/Short diameter) ([6]; crystal ⑥ of 10 selected, listed as 3): 4.3
- Aspect ratio (Long diameter/Short diameter) ([6]; crystal ⑦ of 10 selected, listed as 3): 3.0
- Aspect ratio (Long diameter/Short diameter) ([6]; crystal ⑧ of 10 selected, listed as 3): 4.7
- Aspect ratio (Long diameter/Short diameter) ([6]; crystal ⑨ of 10 selected, listed as 3): 6.1
- Aspect ratio (Long diameter/Short diameter) ([6]; crystal ⑩ of 10 selected, listed as 3): 1.5
- d [4, 3] (volume-based average particle size) ([7]; listed as 3): 450 μm
SMILES: O=C[C@H](O)[C@H](O)[C@H](O)[C@H](O)CO [Test No. 3, D-allose]
